Laboratory results reported in PMC5218480 (PLoS ONE, 2017).

System: MV-4-11 cells
Assay: Gene expression microarray analysis (Affymetrix PrimeView) and GSEA
Format: cell-based, human
Set-up: RFU PODN (11730768_x_at) / Fold change /veh PODN (11730768_x_at) / RFU LINC00158 (11744669_a_at) / Fold change /veh LINC00158 (11744669_a_at) / RFU DUSP10 (11751237_a_at) / Fold change /veh DUSP10 (11751237_a_at) / RFU ID3 (11757404_x_at) / Fold change /veh ID3 (11757404_x_at) / RFU PLEKHG5 (11737974_s_at) / Fold change /veh PLEKHG5 (11737974_s_at) / RFU LRRC4B (11730491_at) / Fold change /veh LRRC4B (11730491_at) / RFU GIMAP4 (11747438_a_at) / Fold change /veh GIMAP4 (11747438_a_at) / RFU KRT8 (11758183_x_at) / Fold change /veh KRT8 (11758183_x_at) / RFU CNN1 (11734310_a_at) / Fold change /veh CNN1 (11734310_a_at) / RFU VPS37D (11726825_at) / Fold change /veh VPS37D (11726825_at) / RFU C10orf10 (11716522_x_at) / Fold change /veh C10orf10 (11716522_x_at) / RFU KIR2DL2 /// KIR2DL4 /// KIR2DL5A /// KIR2DL5B /// KIR2DS1 /// KIR2DS2 /// KIR2DS3 /// KIR2DS4 /// KIR3DL3 /// KIR3DL3 /// KIR3DS1 (11738374_at) / Fold change /veh KIR2DL2 /// KIR2DL4 /// KIR2DL5A /// KIR2DL5B /// KIR2DS1 /// KIR2DS2 /// KIR2DS3 /// KIR2DS4 /// KIR3DL3 /// KIR3DL3 /// KIR3DS1 (11738374_at) / RFU C1QL1 (11718748_at) / Fold change /veh C1QL1 (11718748_at) / RFU TMPRSS4 (11747572_a_at) / Fold change /veh TMPRSS4 (11747572_a_at) / RFU HAMP (11756126_x_at) / Fold change /veh HAMP (11756126_x_at) / RFU RNFT2 (11725882_a_at) / Fold change /veh RNFT2 (11725882_a_at) / RFU NR4A2 (11747474_a_at) / Fold change /veh NR4A2 (11747474_a_at) / RFU ABCC12 (11746883_a_at) / Fold change /veh ABCC12 (11746883_a_at) / RFU TMEM136 (11760407_x_at) / Fold change /veh TMEM136 (11760407_x_at) / RFU CLDN22 /// WWC2 (11732394_at) / Fold change /veh CLDN22 /// WWC2 (11732394_at) / RFU HLA-DPB1 (11760878_x_at) / Fold change /veh HLA-DPB1 (11760878_x_at) / RFU SPINT1 (11716480_a_at) / Fold change /veh SPINT1 (11716480_a_at) / RFU GAP43 (11754022_s_at) / Fold change /veh GAP43 (11754022_s_at) / RFU A4GNT (11735810_at) / Fold change /veh A4GNT (11735810_at) / RFU PRB3 (11715151_x_at) / Fold change /veh PRB3 (11715151_x_at) / RFU TUBB4B (11761932_at) / Fold change /veh TUBB4B (11761932_at) / RFU CAPN14 (11732068_a_at) / Fold change /veh CAPN14 (11732068_a_at) / RFU TMCC2 (11721928_a_at) / Fold change /veh TMCC2 (11721928_a_at) / RFU IRGQ (11745062_a_at) / Fold change /veh IRGQ (11745062_a_at) / RFU FAM174B (11720279_a_at) / Fold change /veh FAM174B (11720279_a_at) / RFU TMPRSS4 (11748680_a_at) / Fold change /veh TMPRSS4 (11748680_a_at) / RFU FAM212B (11763350_a_at) / Fold change /veh FAM212B (11763350_a_at) / RFU PLEKHG5 (11743358_a_at) / Fold change /veh PLEKHG5 (11743358_a_at) / RFU ZSCAN30 (11745921_a_at) / Fold change /veh ZSCAN30 (11745921_a_at) / RFU CMKLR1 (11741424_a_at) / Fold change /veh CMKLR1 (11741424_a_at) / RFU LOC101060620 /// MAPK8IP1 (11723275_at) / Fold change /veh LOC101060620 /// MAPK8IP1 (11723275_at) / RFU SPTSSB (11747773_x_at) / Fold change /veh SPTSSB (11747773_x_at) / RFU PRSS12 (11739890_at) / Fold change /veh PRSS12 (11739890_at) / RFU BIN1 (11741810_x_at) / Fold change /veh BIN1 (11741810_x_at) / RFU WNT11 (11732464_a_at) / Fold change /veh WNT11 (11732464_a_at) / RFU C10orf10 (11716521_a_at) / Fold change /veh C10orf10 (11716521_a_at) / RFU C5orf56 (11738089_at) / Fold change /veh C5orf56 (11738089_at) / RFU CYB561 (11721691_x_at) / Fold change /veh CYB561 (11721691_x_at) / RFU ANKRD19P (11752326_a_at) / Fold change /veh ANKRD19P (11752326_a_at) / RFU OR2T12 /// OR2T33 /// OR2T8 (11738714_s_at) / Fold change /veh OR2T12 /// OR2T33 /// OR2T8 (11738714_s_at) / RFU VCAN (11748164_a_at) / Fold change /veh VCAN (11748164_a_at) / RFU JSRP1 (11732532_at) / Fold change /veh JSRP1 (11732532_at) / RFU KRTAP10-11 (11738290_x_at) / Fold change /veh KRTAP10-11 (11738290_x_at) / RFU MYO3A (11730013_a_at) / Fold change /veh MYO3A (11730013_a_at) / RFU EBF3 (11725865_a_at) / Fold change /veh EBF3 (11725865_a_at) / RFU CAMK2N1 (11719241_x_at) / Fold change /veh CAMK2N1 (11719241_x_at) / RFU C5orf56 (11738088_a_at) / Fold change /veh C5orf56 (11738088_a_at) / RFU OLFML3 (11715873_a_at) / Fold change /veh OLFML3 (11715873_a_at) / RFU LOC100653217 /// NTM (11731650_a_at) / Fold change /veh LOC100653217 /// NTM (11731650_a_at) / RFU MAPK11 (11762145_a_at) / Fold change /veh MAPK11 (11762145_a_at) / RFU FIZ1 (11724087_x_at) / Fold change /veh FIZ1 (11724087_x_at) / RFU OASL (11726364_x_at) / Fold change /veh OASL (11726364_x_at) / RFU SOX15 (11748057_x_at) / Fold change /veh SOX15 (11748057_x_at) / RFU CD79A (11719716_a_at) / Fold change /veh CD79A (11719716_a_at) / RFU HIST1H1D (11736915_at) / Fold change /veh HIST1H1D (11736915_at) / RFU CASKIN2 (11723855_a_at) / Fold change /veh CASKIN2 (11723855_a_at) / RFU LOC730098 (11760151_x_at) / Fold change /veh LOC730098 (11760151_x_at) / RFU OR4N2 (11742367_at) / Fold change /veh OR4N2 (11742367_at) / RFU PRRT2 (11749266_a_at) / Fold change /veh PRRT2 (11749266_a_at) / RFU SNX32 (11753110_a_at) / Fold change /veh SNX32 (11753110_a_at) / RFU CDHR5 (11726645_a_at) / Fold change /veh CDHR5 (11726645_a_at) / RFU RCAN1 (11760418_a_at) / Fold change /veh RCAN1 (11760418_a_at) / RFU FAM167A (11723789_a_at) / Fold change /veh FAM167A (11723789_a_at) / RFU FAM26E (11764081_at) / Fold change /veh FAM26E (11764081_at) / RFU ISYNA1 (11749810_s_at) / Fold change /veh ISYNA1 (11749810_s_at) / RFU ACY1 (11761880_at) / Fold change /veh ACY1 (11761880_at) / RFU 11764098_at / Fold change /veh 11764098_at / RFU SAMD14 (11745864_x_at) / Fold change /veh SAMD14 (11745864_x_at) / RFU NPB (11741838_a_at) / Fold change /veh NPB (11741838_a_at) / RFU TMPRSS6 (11731388_a_at) / Fold change /veh TMPRSS6 (11731388_a_at) / RFU KRTAP10-2 (11738614_at) / Fold change /veh KRTAP10-2 (11738614_at) / RFU ARHGAP8 /// PRR5-ARHGAP8 (11727945_x_at) / Fold change /veh ARHGAP8 /// PRR5-ARHGAP8 (11727945_x_at) / RFU KRTAP5-7 /// NADSYN1 (11734609_at) / Fold change /veh KRTAP5-7 /// NADSYN1 (11734609_at) / RFU RASL12 (11751679_a_at) / Fold change /veh RASL12 (11751679_a_at) / RFU CDKN2B (11736163_a_at) / Fold change /veh CDKN2B (11736163_a_at) / RFU PRF1 (11729649_at) / Fold change /veh PRF1 (11729649_at) / RFU, ZNF638 /// ZNF638-IT1 / Fold change vs veh, ZNF638 /// ZNF638-IT1 / RFU, PANK3 / Fold change vs veh, PANK3 / RFU, SH3YL1 / Fold change vs veh, SH3YL1 / RFU, ZEB2 / Fold change vs veh, ZEB2 / RFU, NRIP1 / Fold change vs veh, NRIP1 / RFU, PTTG1IP / Fold change vs veh, PTTG1IP / RFU, CAPN2 / Fold change vs veh, CAPN2 / RFU, MED14 / Fold change vs veh, MED14 / RFU, SNORA58 / Fold change vs veh, SNORA58 / RFU, C1orf63 / Fold change vs veh, C1orf63 / RFU, LRRFIP1 / Fold change vs veh, LRRFIP1 / RFU, NDUFAF7 / Fold change vs veh, NDUFAF7 / RFU, SLC12A2 / Fold change vs veh, SLC12A2 / RFU, IBTK / Fold change vs veh, IBTK / RFU, ESF1 / Fold change vs veh, ESF1 / Fold change vs veh, TMEM50B / RFU, TAOK1 / Fold change vs veh, TAOK1 / RFU, ACBD3 / Fold change vs veh, ACBD3 / RFU, TMA16 / Fold change vs veh, TMA16 / RFU, RWDD3 / Fold change vs veh, RWDD3 / RFU, BCAT1 / Fold change vs veh, BCAT1 / RFU, EDEM3 / Fold change vs veh, EDEM3 / RFU, TMEM33 / Fold change vs veh, TMEM33 / RFU, WDR75 / Fold change vs veh, WDR75 / RFU, AHCTF1 / Fold change vs veh, AHCTF1 / RFU, TFRC / Fold change vs veh, TFRC / RFU, ZDHHC17 / Fold change vs veh, ZDHHC17 / RFU, NOM1 / Fold change vs veh, NOM1 / RFU, ARL8B / Fold change vs veh, ARL8B / RFU, ZBTB11 / Fold change vs veh, ZBTB11 / RFU, TAMM41 / Fold change vs veh, TAMM41 / RFU, KIAA1704 /// LOC100996395 / Fold change vs veh, KIAA1704 /// LOC100996395 / RFU, ING1 / Fold change vs veh, ING1 / RFU, TRMT61B / Fold change vs veh, TRMT61B / RFU, FUBP3 / Fold change vs veh, FUBP3 / RFU, TP53 / Fold change vs veh, TP53 / RFU, TNKS2 / Fold change vs veh, TNKS2 / RFU, ZFP14 / Fold change vs veh, ZFP14 / RFU, ACTR2 / Fold change vs veh, ACTR2 / RFU, PPP3R1 / Fold change vs veh, PPP3R1 / RFU, PIK3R1 / Fold change vs veh, PIK3R1 / RFU, HNRNPA1 / Fold change vs veh, HNRNPA1 / RFU, RNF170 / Fold change vs veh, RNF170 / RFU, ZNF28 / Fold change vs veh, ZNF28 / RFU, RNGTT / Fold change vs veh, RNGTT / RFU, OGT / Fold change vs veh, OGT / RFU, BRD1 / Fold change vs veh, BRD1 / RFU, MARS / Fold change vs veh, MARS / RFU, ZNF655 / Fold change vs veh, ZNF655 / RFU, FAHD1 / Fold change vs veh, FAHD1 / RFU, BDP1 / Fold change vs veh, BDP1 / RFU, LRRCC1 / Fold change vs veh, LRRCC1 / RFU, ARID1A / Fold change vs veh, ARID1A / RFU, ZNF146 / Fold change vs veh, ZNF146 / RFU, ZNF330 / Fold change vs veh, ZNF330 / RFU, GPN3 / Fold change vs veh, GPN3 / RFU, C9orf123 / Fold change vs veh, C9orf123 / RFU, N4BP2L2 / Fold change vs veh, N4BP2L2 / RFU, ARFIP1 / Fold change vs veh, ARFIP1 / RFU, FAM179B / Fold change vs veh, FAM179B / RFU, BCL10 / Fold change vs veh, BCL10 / RFU, UHRF1BP1L / Fold change vs veh, UHRF1BP1L / RFU, BET1 / Fold change vs veh, BET1 / RFU, CNOT2 / Fold change vs veh, CNOT2 / RFU, ZNF268 / Fold change vs veh, ZNF268 / Fold change vs veh, ZNF507 / RFU, DGCR2 / Fold change vs veh, DGCR2 / RFU, WDSUB1 / Fold change vs veh, WDSUB1 / Fold change vs veh, HSP90B1 /// MIR3652 / RFU, ADSS / Fold change vs veh, ADSS / RFU, GK / Fold change vs veh, GK / RFU, ZNF148 / Fold change vs veh, ZNF148 / RFU, TAF9 / Fold change vs veh, TAF9 / RFU, SLC1A5 / Fold change vs veh, SLC1A5 / RFU, SLMO2 / Fold change vs veh, SLMO2 / RFU, ABCC4 / Fold change vs veh, ABCC4 / RFU, LOC101060439 /// RAP1B / Fold change vs veh, LOC101060439 /// RAP1B / RFU, RFX7 / Fold change vs veh, RFX7 / RFU, GTPBP10 / Fold change vs veh, GTPBP10 / RFU, CNEP1R1 / Fold change vs veh, CNEP1R1 / RFU, BIVM-ERCC5 /// ERCC5 / Fold change vs veh, BIVM-ERCC5 /// ERCC5 / RFU, ILF3 / Fold change vs veh, ILF3 / RFU 11762660_at / Fold change /veh 11762660_at / RFU VCAN (11757783_s_at) / Fold change /veh VCAN (11757783_s_at) / RFU DDX43 (11728927_at) / Fold change /veh DDX43 (11728927_at) / RFU KRT8 (11758188_x_at) / Fold change /veh KRT8 (11758188_x_at) / RFU NKD1 (11759106_at) / Fold change /veh NKD1 (11759106_at) / RFU SRD5A1 (11742802_a_at) / Fold change /veh SRD5A1 (11742802_a_at) / RFU TPSAB1 /// TPSB2 (11721975_s_at) / Fold change /veh TPSAB1 /// TPSB2 (11721975_s_at) / RFU GSTM3 (11746129_a_at) / Fold change /veh GSTM3 (11746129_a_at) / RFU IL23R (11737362_x_at) / Fold change /veh IL23R (11737362_x_at) / RFU TMEM51 (11727254_a_at) / Fold change /veh TMEM51 (11727254_a_at) / RFU PIWIL2 (11732686_x_at) / Fold change /veh PIWIL2 (11732686_x_at) / RFU ORM1 (11744905_x_at) / Fold change /veh ORM1 (11744905_x_at) / RFU CCDC152 (11743942_at) / Fold change /veh CCDC152 (11743942_at) / RFU ECM1 (11717891_a_at) / Fold change /veh ECM1 (11717891_a_at) / RFU IL23R (11748794_a_at) / Fold change /veh IL23R (11748794_a_at) / RFU TNFAIP8L3 (11732012_x_at) / Fold change /veh TNFAIP8L3 (11732012_x_at) / RFU MBOAT4 (11741988_at) / Fold change /veh MBOAT4 (11741988_at) / RFU 11764193_at / Fold change /veh 11764193_at / RFU TMEM53 (11763286_at) / Fold change /veh TMEM53 (11763286_at) / RFU MAGEB2 (11727129_at) / Fold change /veh MAGEB2 (11727129_at) / RFU TMEM200A (11744735_a_at) / Fold change /veh TMEM200A (11744735_a_at) / RFU CCDC152 (11751479_a_at) / Fold change /veh CCDC152 (11751479_a_at) / RFU FAM211A (11726209_a_at) / Fold change /veh FAM211A (11726209_a_at) / RFU RGS16 (11746705_a_at) / Fold change /veh RGS16 (11746705_a_at) / RFU VCAN (11755009_s_at) / Fold change /veh VCAN (11755009_s_at) / RFU RHOB (11743442_s_at) / Fold change /veh RHOB (11743442_s_at) / RFU RGS16 (11720943_a_at) / Fold change /veh RGS16 (11720943_a_at) / RFU RGS16 (11720944_at) / Fold change /veh RGS16 (11720944_at) / RFU, VPS4B / Fold change vs veh, VPS4B / RFU, CREB1 / Fold change vs veh, CREB1 / RFU, DNAJC13 / Fold change vs veh, DNAJC13 / RFU, GNAQ / Fold change vs veh, GNAQ / RFU, CDK5R1 / Fold change vs veh, CDK5R1 / RFU, ZRANB3 / Fold change vs veh, ZRANB3 / RFU, CUL4A / Fold change vs veh, CUL4A / RFU, CCNY / Fold change vs veh, CCNY / RFU, UFL1 / Fold change vs veh, UFL1 / RFU, COG3 / Fold change vs veh, COG3 / RFU, DIAPH2 / Fold change vs veh, DIAPH2 / RFU, SKA2 / Fold change vs veh, SKA2 / RFU, AFF3 / Fold change vs veh, AFF3 / RFU, LMF1 / Fold change vs veh, LMF1 / RFU, IPO11 / Fold change vs veh, IPO11 / RFU, DFFB / Fold change vs veh, DFFB / RFU, FOXP1 / Fold change vs veh, FOXP1 / RFU, CARD8 / Fold change vs veh, CARD8 / RFU, STRN3 / Fold change vs veh, STRN3 / RFU, ADK / Fold change vs veh, ADK / RFU, RASSF2 / Fold change vs veh, RASSF2 / RFU, WIPF1 / Fold change vs veh, WIPF1 / RFU, LARP1B / Fold change vs veh, LARP1B / RFU, RASA1 / Fold change vs veh, RASA1 / RFU, RB1 / Fold change vs veh, RB1 / RFU, PPFIA1 / Fold change vs veh, PPFIA1 / RFU, MAT2A / Fold change vs veh, MAT2A / RFU, CCT5 / Fold change vs veh, CCT5 / RFU, WDR92 / Fold change vs veh, WDR92 / RFU, CUX1 / Fold change vs veh, CUX1 / RFU, TTC7A / Fold change vs veh, TTC7A / RFU, TMEM135 / Fold change vs veh, TMEM135 / RFU, DEPTOR / Fold change vs veh, DEPTOR / RFU, CPM / Fold change vs veh, CPM / RFU, DNAJB6 / Fold change vs veh, DNAJB6 / RFU, CACNA2D3 / Fold change vs veh, CACNA2D3 / RFU, DTX4 / Fold change vs veh, DTX4 / RFU, TFCP2 / Fold change vs veh, TFCP2 / RFU, GMCL1 /// GMCL1P1 / Fold change vs veh, GMCL1 /// GMCL1P1 / RFU, AEBP2 / Fold change vs veh, AEBP2 / RFU, SNHG1 /// SNORD22 /// SNORD25 /// SNORD26 /// SNORD27 /// SNORD28 /// SNORD29 /// SNORD31 / Fold change vs veh, SNHG1 /// SNORD22 /// SNORD25 /// SNORD26 /// SNORD27 /// SNORD28 /// SNORD29 /// SNORD31 / Fold change (Aza/veh), C12orf56 (ProbeSet 11735607_a_at) / Fold change (ACY-1035/veh), C12orf56 (ProbeSet 11735607_a_at) / Fold change (Aza/veh), FGFR1OP (ProbeSet 11751329_s_at) / Fold change (ACY-1035/veh), FGFR1OP (ProbeSet 11751329_s_at) / Fold change (Aza/veh), VPS36 (ProbeSet 11739960_a_at) / Fold change (ACY-1035/veh), VPS36 (ProbeSet 11739960_a_at) / RFU SYPL1 (11715823_x_at) / Fold change /veh SYPL1 (11715823_x_at) / RFU IGFBP7 (11715501_s_at) / Fold change /veh IGFBP7 (11715501_s_at) / RFU REEP3 (11722064_at) / Fold change /veh REEP3 (11722064_at) / RFU IGLL1 (11728026_x_at) / Fold change /veh IGLL1 (11728026_x_at): dose or concentration left out as unconfirmed
Conditions: ProbeSet 11716931_at; LIST B

Nc1ncn([C@@H]2O[C@H](CO)[C@@H](O)[C@H]2O)c(=O)n1 [azacitidine]
Fold change vs veh, DGCR2: 0.93
